Experimental data from patent US20250360091A1, “COMBINATION OF SGLT2 INHIBITOR AND MENTHOL AND USE THEREOF IN TREATMENT OF HEART DISEASE” (EAST CHINA UNIVERSITY OF SCIENCE AND TECHNOLOGY, priority 2023, published 2025).

Test system: H9c2 cells
Experiment: GD-induced injury: LDH release and crystal violet staining (Example 2)
Format: cell-based, Rat
Settings: empagliflozin 100 μM and 200 μM; GD 48 h
Procedure: To further verify the anti-heart failure efficacy of the drug composition, H9c2 cells were seeded into 24-well plates. After the cells covered the bottom of the dish, the high-glucose DMEM was removed, the plate was washed once with PBS, and empagliflozin alone and different concentrations of the drug composition were prepared with sugar-free and serum-free DMEM medium, and added to the cells for glucose deprivation treatment. For the GD group, sugar-free and serum-free DMEM medium without drugs was added. For the NG group, high-glucose DMEM containing serum was continued to be added for culture. After 48 hours of glucose deprivation treatment, 50 μL of culture medium was taken to a 96-well plate, and the release of LDH in the culture medium was detected using an LDH detection kit. The culture medium was removed, the cells were placed on ice, and washed twice with pre-cooled PBS for 3 to 5 minutes each time. The cells were fixed with pre-cooled methanol at −20° C. for 10 minutes. Methanol was removed and the cells were returned to room temperature. […] The cells were placed in a 37° C. oven for drying, photographed under a microscope, and the staining was quantified by Image J. The larger the purple area, the more cells survived, and the more LDH was released, which indicated more cell damage. […]

OC[C@H]1O[C@@H](c2ccc(Cl)c(Cc3ccc(O[C@H]4CCOC4)cc3)c2)[C@H](O)[C@@H](O)[C@@H]1O [empagliflozin]
cell survival rate (crystal violet purple area, LDH release): significantly increases the cell survival rate in a dose-dependent manner
